Literature values as cited in patent publication US9180090B2, “Non-sedating antihistamine injection formulations and methods of use thereof” (JDP THERAPEUTICS, INC., priority 2009, dated 2015).

How the values were obtained:
[1] = for Major (potential drug interactions) / Minor (potential drug interactions) / Moderate (potential drug interactions): number of interactions per drugs.com
[2] = oral

| Major (potential drug interactions) [1] | Minor (potential drug interactions) [1] | Moderate (potential drug interactions) [1] | Disease state interaction ([1]; per drugs.com) | Compound | AUC0-24 (single dose) ([2]; single dose) | AUC(single dose)0-inf ([2]; single dose) | AUCss ([2]; steady state) |
| --- | --- | --- | --- | --- | --- | --- | --- |
| 17 | 6 | 622 |  | OCCOCCN1CCN(C(c2ccccc2)c2ccc(Cl)cc2)CC1 (racemic) [Hydroxyzine] |  |  |  |
|  |  |  |  | Clc1ccc2c(c1)CCc1cccnc1C2=C1CCNCC1 [desloratadine] | AUC0-24 (single dose) = about 34.2 ng · hr/mL | AUC(single dose)0-inf = about 35.6 ng/hr/mL | AUCss = about 56.9 ng · hr/mL |
| 0 | 5 | 568 | Renal/Liver Disease | O=C(O)COCCN1CCN(C(c2ccccc2)c2ccc(Cl)cc2)CC1 (racemic) [Cetirizine, (±)-[2-[4-[(4-chlorophenyl)phenylmethyl]-1-piperazinyl]ethoxy]acetic acid] |  |  |  |
